Read-outs that look alike come from different tables or passages of the source.
Columns and labels:
[1] = target: T1, IRAK4 (Homo sapiens (Human), UniProt Q9NWZ3); experiment: Screening the compounds against IRAK4 with ATP (Caliper, FAM-labeled peptide); assay type: biochemical; details: for IC50: read-out: IC50 (nM) (10 μM ATP); for activity, times better than that of the positive control compound CA4948: IRAK4 kinase inhibition relative to CA4948
Procedure: Prepare Ix kinase base buffer and stop buffer for testing kinases: (1) base buffer: 50 mM HEPES (pH 7.5), 0.0015% Brij-35; (2) stop buffer: 100 mM HEPES (pH 7.5), 0.015% Brij-35, 0.2% Coating Reagent #3, 50 mM EDTA. Then prepare compounds for testing: Dilute the compound to 50× of the final desired highest inhibitor concentration in reaction by 100% DMSO. Transfer 100 μL of this compound dilution to a well in a 96-well plate (source plate).
Serially dilute the compounds by 3-fold for a total of 10 points. Transfer 10 μL of the compound from the source plate to a new 96-well plate (intermediate plate) and add 90 μL of Ix kinase buffer. Shake the mixture on the intermediate plate for 10 min. Transfer 5 μL of each well from the 96-well intermediate plate to a 384-well plate in duplicates. Add 10 μL of 2.5× enzyme solution to each well of the 384-well assay plate and incubate at room temperature for 10 min. Add 10 μL, of 2.5×FAM-labeled peptide and ATP solution and incubate at 28° C. for a period of time. Finally stop the reaction by adding 30 μL of stop buffer and collect data on Caliper to obtain the IC50.

[2] = Metabolic stability in rat liver microsomes; assay type: in vitro ADME, SD Rat; details: for half-life: SD rat liver microsomes, NADPH, 37° C., read-out: Rat microsome (t1/2)
Procedure: (§1) The appropriate concentrations of microsomes working solutions (0.56 mg/mL) were prepared in potassium phosphate buffer. The test compounds were incubated with Human, SD Rat, CD-1 Mouse and Beagle Dog liver microsomes for 10 min at 37° C. with constant shaking. The reaction was initiated by the addition of nicotinamide adenine dinucleotide phosphate (NADPH) cofactor after a 10 min pre-incubation. At 5, 15, 30, 45, and 60 min, the samples were taken and placed into the stop solution (Cold acetonitrile containing 200 ng/mL tolbutamide and 200 ng/mL labetalol as internal standards). All sampling plates were shaken for 10 min, then centrifuged at 4000 rpm for 20 minutes at 4° C. Each supernatant of bioanalysis plate was sealed and shaken for 10 minutes prior to LC-MS analysis.

[3] = Metabolic stability in dog liver microsomes; assay type: in vitro ADME, Beagle Dog; details: for half-life: Beagle dog liver microsomes, NADPH, 37° C., read-out: Dog microsome (t1/2)
Procedure: as §1

[4] = target: T1, IRAK4; experiment: Kinase binding ability (KINOMEscan site-directed competition binding assay)
Procedure: The Equilibrium dissociation constant reflected the test compound's kinase binding (Kd). The KINOMEscan, a site-directed competition binding assay, was used to measure interactions between test compounds and specific kinases. The kinase-tagged T7 phage strains were derived from the BL21 strain's E. coli host. T7 phage was used to infect E. coli, which was then incubated until lysis occurred. The remaining kinases were produced in HEK-293 cells and tagged with DNA. To create affinity resins for kinase, streptavidin-coated magnetic beads were treated with biotinylated small molecule ligands. The assay consists of three components: a DNA-tagged kinase, an immobilized ligand, and the test compound. An immobilized ligand could compete with the compound binding the kinase active site. The affinity beads were washed with wash buffer and re-suspended in elution buffer following reactions in a polypropylene 384-well plate. qPCR of the kinase-DNA tag was used to assess the test compound's ability to bind with the selected kinase. The assay was carried out in accordance with the manufacturer's instructions (Eurofins DiscoverX Corporation).
Binding constants (Kd) were calculated with a standard dose-response curve using the Hill equation: […]

[5] = Metabolic stability in human liver microsomes; assay type: in vitro ADME; details: for half-life: NADPH, 37° C., read-out: Human microsome (t1/2)
Procedure: as §1

[6] = Metabolic stability in mouse liver microsomes; assay type: in vitro ADME, CD-1 Mouse; details: for half-life: CD-1 mouse liver microsomes, NADPH, 37° C., read-out: Mouse microsome (t1/2)
Procedure: as §1

T1 sequence (Q9NWZ3 whole entry): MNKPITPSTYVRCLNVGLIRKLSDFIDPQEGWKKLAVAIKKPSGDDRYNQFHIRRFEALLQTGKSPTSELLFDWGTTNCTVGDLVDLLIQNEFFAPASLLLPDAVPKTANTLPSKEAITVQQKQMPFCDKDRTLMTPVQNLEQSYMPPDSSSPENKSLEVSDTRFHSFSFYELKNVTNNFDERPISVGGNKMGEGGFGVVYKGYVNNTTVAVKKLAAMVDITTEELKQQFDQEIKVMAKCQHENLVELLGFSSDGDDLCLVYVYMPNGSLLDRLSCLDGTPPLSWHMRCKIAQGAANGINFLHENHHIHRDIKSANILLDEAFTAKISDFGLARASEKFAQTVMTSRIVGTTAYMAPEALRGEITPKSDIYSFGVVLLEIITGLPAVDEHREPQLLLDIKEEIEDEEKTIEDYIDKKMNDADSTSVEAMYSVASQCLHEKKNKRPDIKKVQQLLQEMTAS

Q: For `Cn1cc(-c2cccc(NC(=O)c3cc4oc(N5CCOCC5)nc4nc3N3CC[C@@H](O)C3)n2)cn1` [Compound A1, (R)-5-(3-hydroxypyrrolidin-1-yl)-N-(6-(1-methyl-1H-pyrazol-4-yl)pyridin-2-yl)-2-morpholinooxazolo[4,5-b]pyridine-6-carboxamide], which IC50 ([1]; IRAK4 kinase, 10 μM ATP) is on record?
A: 405 nM

Q: And the half-life [2]?
A: > 2.42 h

Q: What about the “metabolic stability in liver microsomes of rat (in words)” value [2] of the same molecule?
A: good metabolic stability

Q: What about the half-life [3] of the same molecule?
A: > 2.42 h

Q: And the “metabolic stability in liver microsomes of dog (in words)” value [3]?
A: good metabolic stability

Q: And the “binding affinities to IRAK4 (in words)” value [4]?
A: high binding affinities

Q: And the Kd ([4]; Kd between IRAK4 and compound)?
A: 29 nM

Q: What about the “metabolic stability in liver microsomes of human (in words)” value [5] of the same molecule?
A: good metabolic stability

Q: What about the half-life [5] of the same molecule?
A: > 2.42 h

Q: And the half-life [6]?
A: > 2.42 h

Q: And the “metabolic stability in liver microsomes of mouse (in words)” value [6]?
A: good metabolic stability

Q: What does the source list for `COC1CCN(c2nc3nc(N4CCOCC4)oc3cc2C(=O)Nc2cccc(-c3cnn(C)c3)n2)CC1` [Compound A24, 5-(4-Methoxypiperidin-1-yl)-N-(6-(1-methyl-1H-pyrazol-4-yl)pyridin-2-yl)-2-morpholinooxazolo[4,5-b]pyridine-6-carboxamide]?
A: activity, times better than that of the positive control compound CA4948 [1]: more than 25 times; IC50 ([1]; IRAK4 kinase, 10 μM ATP): 4.1 nM; half-life [2]: 1.27 h; metabolic stability in liver microsomes of rat (in words) [2]: moderate metabolic stability; half-life [3]: 1.13 h; metabolic stability in liver microsomes of dog (in words) [3]: moderate metabolic stability; metabolic stability in liver microsomes of human (in words) [5]: good metabolism; half-life [5]: 1.95 h; half-life [6]: 1.48 h; metabolic stability in liver microsomes of mouse (in words) [6]: good metabolism

Q: For `Cn1cc(-c2cccc(NC(=O)c3cc4oc(N5CCOCC5)nc4nc3N3CC4(C3)CC(F)(F)C4)n2)cn1` [Compound A15, 5-(6,6-Difluoro-2-azaspiro[3.3]heptan-2-yl)-N-(6-(1-methyl-1H-pyrazol-4-yl)pyridin-2-yl)-2-morpholinooxazolo[4,5-b]pyridine-6-carboxamide], which IC50 ([1]; IRAK4 kinase, 10 μM ATP) is on record?
A: 244 nM

Q: For `Cn1cc(-c2cccc(NC(=O)c3cc4oc(N5CCNCC5)nc4nc3N3CCC4(CCO4)CC3)n2)cn1` [Compound A55, N-(6-(1-Methyl-1H-pyrazol-4-yl)pyridin-2-yl)-2-(piperazin-1-yl)-5-(1-oxa-7-azaspiro[3.5]nonan-7-yl)oxazolo[4,5-b]pyridine-6-carboxamide], which IC50 ([1]; IRAK4 kinase, 10 μM ATP) is on record?
A: 5.9 nM

Q: For `Cn1cc(-c2cccc(NC(=O)c3cc4oc(N5CCOCC5)nc4nc3N3CCN4CCC[C@@H]4C3)n2)cn1` [Compound A21, (R)-5-(Hexahydropyrrolo[1,2-a]pyrazin-2(1H)-yl)-N-(6-(1-methyl-1H-pyrazol-4-yl)pyridin-2-yl)-2-morpholinooxazolo[4,5-b]pyridine-6-carboxamide], which IC50 ([1]; IRAK4 kinase, 10 μM ATP) is on record?
A: 26 nM

Q: Which IC50 ([1]; IRAK4 kinase, 10 μM ATP) does the source give for `Cn1cc(-c2cccc(NC(=O)c3cc4c(nc3OC3CCOCC3)OC(C)(C)C4)n2)cn1` [Compound B23, 2,2-Dimethyl-N-(6-(1-methyl-1H-pyrazol-4-yl)pyridin-2-yl)-6-((tetrahydro-2H-pyran-4-yl)oxy)-2,3-dihydrofuro[2,3-b]pyridine-5-carboxamide] here?
A: 11 nM

Q: Which “activity, times better than that of the positive control compound CA4948” value [1] does the source give for `Cn1cc(-c2cccc(NC(=O)c3cc4c(nc3O[C@@H]3CCOC3)OC(C)(C)C4)n2)cn1` [Compound B33, (R)-2,2-Dimethyl-N-(6-(1-methyl-1H-pyrazol-4-yl)pyridin-2-yl)-6-((tetrahydrofuran-3-yl)oxy)-2,3-dihydrofuro[2,3-b]pyridine-5-carboxamide] here?
A: more than 10 times

Q: And the IC50 ([1]; IRAK4 kinase, 10 μM ATP)?
A: 8.9 nM

Q: For `CN1CCN(c2nc3nc(N4CCOCC4)oc3cc2C(=O)Nc2cccc(-c3cnn(C)c3)n2)CC1` [Compound A3, N-(6-(1-methyl-1H-pyrazol-4-yl)pyridin-2-yl)-5-(4-methylpiperazin-1-yl)-2-morpholinooxazolo[4,5-b]pyridine-6-carboxamide], which IC50 ([1]; IRAK4 kinase, 10 μM ATP) is on record?
A: 43 nM

Q: For `Cc1cc(-c2nc(NC(=O)c3cc4oc(N5CCOCC5)nc4nc3N3CC[C@@H](O)C3)co2)ccn1` [Compound A49, (R)-5-(3-Hydroxypyrrolidin-1-yl)-N-(2-(2-methylpyridin-4-yl)oxazol-4-yl)-2-morpholinooxazolo[4,5-b]pyridine-6-carboxamide], which IC50 ([1]; IRAK4 kinase, 10 μM ATP) is on record?
A: > 6000 nM

Q: Which IC50 ([1]; IRAK4 kinase, 10 μM ATP) does the source give for `Cn1cc(-c2cccc(NC(=O)c3cc4c(nc3O)OC(C)(C)C4)n2)cn1` [Compound B34] here?
A: 243 nM

Q: With `COC1CCN(c2nc3nc(N4CCN(CCO)CC4)oc3cc2C(=O)Nc2cccc(-c3cnn(C)c3)n2)CC1` [Compound A57, 2-(4-(2-Hydroxyethyl)piperazin-1-yl)-5-(4-methoxypiperidin-1-yl)-N-(6-(1-methyl-1H-pyrazol-4-yl)pyridin-2-yl)oxazolo[4,5-b]pyridine-6-carboxamide] as the molecule, how does the IC50 [1] read?
A: 5.1 nM

Q: Which IC50 ([1]; IRAK4 kinase, 10 μM ATP) does the source give for `Cn1cc(-c2cccc(NC(=O)c3cc4oc(N5CCOCC5)nc4nc3N3CC(O)(C4CC4)C3)n2)cn1` [Compound A10, 5-(3-Cyclopropyl-3-hydroxyazetidin-1-yl)-N-(6-(1-methyl-1H-pyrazol-4-yl)pyridin-2-yl)-2-morpholinooxazolo[4,5-b]pyridine-6-carboxamide] here?
A: 122 nM

Q: Which IC50 ([1]; IRAK4 kinase, 10 μM ATP) does the source give for `CCOc1nc2c(cc1C(=O)Nc1cccc(-c3cnn(C)c3)n1)CC(C)(C)O2` [Compound B12, 6-Ethoxy-2,2-dimethyl-N-(6-(1-methyl-1H-pyrazol-4-yl)pyridin-2-yl)-2,3-dihydrofuro[2,3-b]pyridine-5-carboxamide] here?
A: 9.2 nM

— patent US20250074919A1, “Heteroaryl compounds as inhibitors of irak4, compositions and applications thereof” (Accro Bioscience (HK) Limited, priority 2021, published 2025)
